Where two headings read alike, the source gives them in different places.
Assays:
[1] = molecular target: recombinant human IL-17AA (Homo sapiens, UniProt Q16552); assay: IL-6 release from NHDF cells, IL-17AA plus TNF-α stimulation; type: cell-based; details: 24 hours, IL-6 by ELISA
Outline: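 IL-17-specific IL-6 release from NHDF cells adhered overnight; compounds pre-incubated 30 min at room temperature with human IL-17AA plus TNF-α, then 24 h on cells at 37° C. Final DMSO 0.1% or plasma 20%; IL-6 by ELISA (450 nm). TNF-α-only IL-6 subtracted before IC50 fit.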

[2] = molecular target: biotinylated human IL-17A / AF647-labeled human IL-17RA (Homo sapiens, UniProt Q16552); assay: Human IL-17A×IL-17RA TR-FRET assay; type: binding
Chain of biotinylated human IL-17A / AF647-labeled human IL-17RA (Q16552 24-155): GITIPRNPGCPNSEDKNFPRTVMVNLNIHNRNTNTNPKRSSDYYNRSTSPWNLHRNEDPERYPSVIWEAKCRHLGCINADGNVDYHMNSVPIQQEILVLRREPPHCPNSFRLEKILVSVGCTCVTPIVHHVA
Outline: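 Compounds tested in duplicate at each concentration; neutral controls contain all components with DMSO in place of compound.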

[3] = NHDF cells, IL-17AA 30 pM plus TNF-α 6 pM, read-out: IL17AA + TNF IC50 IL-6
[4] = TR-FRET, biotinylated human IL-17A 5 nM, AF647-labeled human IL-17RA 30 nM, read-out: IL17AA FRET/ IL17Rawt IC50
[5] = NHDF cells, IL-17AA 30 pM + TNF-α 6 pM, read-out: IL17AA + TNF IC50 IL-6
[6] = TR-FRET, 5 nM IL-17A, 30 nM IL-17RA, read-out: IL17AA FRET/ IL17Rawt IC50
[7] = IL17AA + TNF IC50 IL-6, NHDF cells, IL-17AA 30 pM plus TNF-α 6 pM
[8] = IL17AA FRET/ IL17Rawt IC50, TR-FRET, biotinylated human IL-17A 5 nM, AF647-labeled human IL-17RA 30 nM

Chain of recombinant human IL-17AA (Q16552 24-155): as above

| SMILES | IC50 [1, 3] [µM] | IC50 [2, 4] [µM] | IC50 [1, 5] [µM] | IC50 [2, 6] [µM] | also measured |
| --- | --- | --- | --- | --- | --- |
| Cc1c[n+]([O-])cc(C)c1-c1ccc(NC(=O)[C@@H](NC(=O)c2ccnn2C(C)C)C2CCCCCC2)cc1 [Example 101, (S)-4-(4-(2-cycloheptyl-2-(1-isopropyl-1H-pyrazole-5-carboxamido)acetamido)phenyl)-3,5-dimethylpyridine 1-oxide] | 0.022 | 0.085 | – | – | – |
| Cc1c(-c2ccc(NC(=O)C(NC(=O)c3ccnn3C)C3CCC(C(F)(F)F)CC3)cc2)c(Cl)cc[n+]1[O-] [Example 18, 4-chloro-2-methyl-3-(4-((S)-2-(1-methyl-1H-pyrazole-5-carboxamido)-2-((1r,4S)-4-(trifluoromethyl)cyclohexyl)acetamido)phenyl)pyridine 1-oxide] | 0.028 | 0.025 | – | – | – |
| Cn1nccc1C(=O)N[C@H](C(=O)Nc1ccc(-c2c[n+]([O-])ccc2Cl)c(F)c1)C1CCCCC1 [Example 93, (S)-4-chloro-3-(4-(2-cyclohexyl-2-(1-methyl-1H-pyrazole-5-carboxamido)acetamido)-2-fluorophenyl)pyridine 1-oxide] | 0.058 | 0.601 | – | – | – |
| Cc1c(-c2ccc(NC(=O)[C@@H](NC(=O)c3ccnn3C)C3CCC(F)(F)CC3)cc2)c(C(F)(F)F)cc[n+]1[O-] [Example 27, (S)-3-(4-(2-(4,4-difluorocyclohexyl)-2-(1-methyl-1H-pyrazole-5-carboxamido)acetamido)phenyl)-2-methyl-4-(trifluoromethyl)pyridine 1-oxide] | 0.115 | 0.121 | – | – | – |
| COCc1nocc1C(=O)N[C@H](C(=O)Nc1ccc(-c2c(Cl)cc[n+]([O-])c2C)c(F)c1)C1CCC(F)(F)CC1 [Example 163, 4-chloro-3-(4-((S)-2-(4,4-difluorocyclohexyl)-2-(3-(methoxymethyl)isoxazole-4-carboxamido)acetamido)-2-fluorophenyl)-2-methylpyridine 1-oxide] | – | – | 0.068 | 0.191 | – |
| Cc1c(-c2ccc(NC(=O)C(NC(=O)c3ccnn3C)C3CC4C(C3)C4(F)F)cc2)c(Cl)cc[n+]1[O-] (single isomer, unassigned) [Example 54a] | – | – | – | – | IC50 [1, 7]: 0.034 µM; IC50 [2, 8]: 0.028 µM |
| Cc1cc[n+]([O-])c(C)c1-c1ccc(NC(=O)[C@@H](NC(=O)c2ccnn2C)C2CCC(F)(F)CC2)cc1F [Example 109, 3-(4-((S)-2-(4,4-difluorocyclohexyl)-2-(1-methyl-1H-pyrazole-5-carboxamido)acetamido)-2-fluorophenyl)-2,4-dimethylpyridine 1-oxide] | 0.084 | 0.164 | – | – | – |
| CCn1nccc1C(=O)NC(C(=O)Nc1ccc(-c2c(Cl)cc[n+]([O-])c2C)c(F)c1)[C@H]1C[C@@H]2C[C@@H]2C1 (stereo partly drawn) [Example 58, 3-(4-(2-((1R,3s,5S)-bicyclo[3.1.0]hexan-3-yl)-2-(1-ethyl-1H-pyrazole-5-carboxamido)acetamido)-2-fluorophenyl)-4-chloro-2-methylpyridine 1-oxide] | 0.012 | 0.044 | – | – | – |
| Cc1cc[n+]([O-])c(C)c1-c1ccc(NC(=O)[C@@H](NC(=O)c2ccnn2C)[C@H]2CCC[C@H](F)CC2)cc1 [Example 197, 3-(4-((S)-2-((1S,4S)-4-fluorocycloheptyl)-2-(1-methyl-1H-pyrazole-5-carboxamido)acetamido)phenyl)-2,4-dimethylpyridine 1-oxide] | – | – | 0.121 | 0.213 | – |
| Cc1c(-c2ccc(NC(=O)[C@@H](NC(=O)c3ccc4n3CCN(C)C4)C3CCC(F)(F)CC3)cc2F)c(Cl)cc[n+]1[O-] [Example 164, 4-chloro-3-(4-((S)-2-(4,4-difluorocyclohexyl)-2-(2-methyl-1,2,3,4-tetrahydropyrrolo[1,2-a]pyrazine-6-carboxamido)acetamido)-2-fluorophenyl)-2-methylpyridine 1-oxide] | – | – | 0.045 | 0.199 | – |
| CCn1nccc1C(=O)NC(C(=O)Nc1ccc(-c2c(Cl)cc[n+]([O-])c2C)cc1)C1CC2CC2C1 (stereo not shown) [Example 70, 3-(4-(2-(bicyclo[3.1.0]hexan-3-yl)-2-(1-ethyl-1H-pyrazole-5-carboxamido)acetamido)phenyl)-4-chloro-2-methylpyridine 1-oxide] | 0.026 | 0.084 | – | – | – |
| Cc1cc[n+]([O-])c(C)c1-c1ccc(NC(=O)C(NC(=O)c2ccc3n2CCN(C)C3)C2CCC(C(F)(F)F)CC2)cc1 [Example 125, 2,4-dimethyl-3-(4-((S)-2-(2-methyl-1,2,3,4-tetrahydropyrrolo[1,2-a]pyrazine-6-carboxamido)-2-((1r,4S)-4-(trifluoromethyl)cyclohexyl)acetamido)phenyl)pyridine 1-oxide] | 0.018 | 0.174 | – | – | – |
| Cc1cc[n+]([O-])c(C)c1-c1ccc(NC(=O)C(NC(=O)c2ccnn2C)C2CCC(C)CC2)cc1F [Example 84, 3-(2-fluoro-4-((S)-2-(1-methyl-1H-pyrazole-5-carboxamido)-2-((1r,4S)-4-methylcyclohexyl)acetamido)phenyl)-2,4-dimethylpyridine 1-oxide] | – | – | – | – | IC50 [1, 7]: 0.008 µM; IC50 [2, 8]: 0.014 µM |
| Cc1nocc1C(=O)NC(C(=O)Nc1ccc(-c2c(Cl)cc[n+]([O-])c2C)cc1)C1CCC(C(F)(F)F)CC1 [Example 19, 4-chloro-2-methyl-3-(4-((S)-2-(3-methylisoxazole-4-carboxamido)-2-((1r,4S)-4-(trifluoromethyl)cyclohexyl)acetamido)phenyl)pyridine 1-oxide] | 0.02 | 0.026 | – | – | – |
| Cc1cc[n+]([O-])c(Cl)c1-c1ccc(NC(=O)[C@@H](NC(=O)c2ccnn2C)C2CCCCC2)cc1 [Example 89, (S)-2-chloro-3-(4-(2-cyclohexyl-2-(1-methyl-1H-pyrazole-5-carboxamido)acetamido)phenyl)-4-methylpyridine 1-oxide] | 0.083 | 0.286 | – | – | – |
| Cc1c(-c2ccc(NC(=O)C(NC(=O)c3ccnn3C)C3CC4CC4C3)cc2)c(Cl)cc[n+]1[O-] (stereo not shown) [Example 218, 3-(4-(2-(bicyclo[3.1.0]hexan-3-yl)-2-(1-methyl-1H-pyrazole-5-carboxamido)acetamido)phenyl)-4-chloro-2-methylpyridine 1-oxide] | – | – | 0.0195 | 0.0675 | – |
| CC(=O)N1CCn2c(ccc2C(=O)N[C@H](C(=O)Nc2ccc(-c3c(C)cc[n+]([O-])c3C)cc2)C2CCCCCC2)C1 [Example 188, (S)-3-(4-(2-(2-acetyl-1,2,3,4-tetrahydropyrrolo[1,2-a]pyrazine-6-carboxamido)-2-cycloheptylacetamido)phenyl)-2,4-dimethylpyridine 1-oxide] | – | – | 0.00605 | 0.104 | – |
| CCc1nocc1C(=O)NC(C(=O)Nc1ccc(-c2c(C)cc[n+]([O-])c2C)cc1)C1CCC(C(F)(F)F)CC1 [Example 8, 3-(4-((S)-2-(3-ethylisoxazole-4-carboxamido)-2-((1r,4S)-4-(trifluoromethyl)cyclohexyl)acetamido)phenyl)-2,4-dimethylpyridine 1-oxide] | 0.004 | 0.041 | – | – | – |
| Cc1cc[n+]([O-])c(C)c1-c1ccc(NC(=O)[C@@H](NC(=O)c2ccc3n2CCN(C)C3)C2CCC(F)(F)CC2)cc1 [Example 151, (S)-3-(4-(2-(4,4-difluorocyclohexyl)-2-(2-methyl-1,2,3,4-tetrahydropyrrolo[1,2-a]pyrazine-6-carboxamido)acetamido)phenyl)-2,4-dimethylpyridine 1-oxide] | – | – | 0.057 | 0.26 | – |
| Cc1ccnc(C)c1-c1ccc(NC(=O)[C@@H](NC(=O)c2ccnn2C)[C@H]2CC[C@H](C)CC2)cc1 [compound 138, N-((S)-2-((4-(2,4-dimethylpyridin-3-yl)phenyl)amino)-1-((1r,4S)-4-methylcyclohexyl)-2-oxoethyl)-1-methyl-1H-pyrazole-5-carboxamide, reference compound] | – | – | – | – | IC50 ([1]; NHDF cells, IL-17AA 30 pM + TNF-α 6 pM, reference examples (pyridines), read-out: IL 17AA + TNF IC50 IL-6): 0.055 µM; IC50 ([2]; TR-FRET, 5 nM IL-17A, 30 nM IL-17RA, reference examples (pyridines), read-out: IL17AA FRET/ IL17RAwt IC50): 0.552 µM |
| Cc1nocc1C(=O)N[C@H](C(=O)Nc1ccc(-c2c(Cl)cc[n+]([O-])c2C)c(F)c1)C1CCC(F)(F)CC1 [Example 106, 4-chloro-3-(4-((S)-2-(4,4-difluorocyclohexyl)-2-(3-methylisoxazole-4-carboxamido)acetamido)-2-fluorophenyl)-2-methylpyridine 1-oxide] | 0.018 | 0.05 | – | – | – |
| Cc1cc[n+]([O-])c(C)c1-c1ccc(NC(=O)[C@H](Cc2ccccc2F)NC(=O)c2ccnn2C)cc1 [Example 217, (S)-3-(4-(3-(2-fluorophenyl)-2-(1-methyl-1H-pyrazole-5-carboxamido)propanamido)phenyl)-2,4-dimethylpyridine 1-oxide] | – | – | 2.96 | 1.1 | – |
| Cc1cc[n+]([O-])c(C)c1-c1ccc(NC(=O)C(NC(=O)c2conc2C)C2CCC(C(F)(F)F)CC2)cc1 [Example 23, 2,4-dimethyl-3-(4-((S)-2-(3-methylisoxazole-4-carboxamido)-2-((1r,4S)-4-(trifluoromethyl)cyclohexyl)acetamido)phenyl)pyridine 1-oxide] | 0.006 | 0.06 | – | – | – |

— US12600728B2, “Interleukin-17 inhibitors” (priority 2020, dated 2026)
